Legend:
L428, MDR + HL = experiment: In vitro growth inhibition (CellTiter-Glo, 96 h), L428; format: cell-based; settings: cAC10 (anti-CD30) ADCs, average DAR 4
Protocol: (§1) Cell culture of cell lines as listed in Table 2-4 in log-phase growth were seeded in 96-well plates and grown for 24 h in cell culture media containing 150 μL RPMI 1640 supplemented with 20% FBS (see Mol. Cancer Ther., 2016, 15(5), 938-945 and Mol. Cancer Ther., 2018, 17(8), 1752-1760). Serial dilutions of free drugs or antibody-drug conjugates (final concentration between 0.004 nM and 1 μM) in cell culture media were prepared at 4× working concentrations; 50 μL of each dilution was added to the 96-well plates. Following addition of the drug or ADC, the cells were incubated with test articles (free drugs or ADCs) for 4 d at 37° C. After 96 h, growth inhibition was assessed by CellTiter-Glo® (Promega, Madison, WI) and luminescence was measured on a plate reader (brand, model).
(§2) Anti-CD30 ADCs comprising cAC10 antibody conjugated to drug-linkers 24, 32, 29, 18, 14, and 48 with an average DAR of 4 were prepared for evaluation on a CD30-expressing lymphoma cell line panel. […] Anti-CD30 conjugates bearing the PNU linkers 24, 32, 29, 18, and 14 were active on L540cy, DEL, and Karpas299 lymphoma cell lines, and conjugate 48 was active on L540cy and DEL cell lines, with IC50s ranging from 0.2-4 ng/mL.

BxPC3, PancCa = experiment: In vitro growth inhibition (CellTiter-Glo, 96 h), BxPC3; format: cell-based; settings: cOKT9 ADCs, average DAR 8, 96 h
Protocol: as §1
(§3) Cells were treated for 96 hours with anthracycline analogues listed in Table 2, and then assessed for viability as described in the procedures as described above. […] ND denotes value not determined with that assay for the specified compound.
(§4) ADCs were prepared by full reduction of interchain disulfides to reveal 8-conjugatable cysteines/antibody, and subsequent alkylation with the maleimide-containing drug-linkers (Compounds 14, 18, 21, 24, 29, 32, 33, 34, and 48) according to the procedures described in Mol. Cancer Ther. 2018, 17(8). 1752-1760. Conjugates of antibody cOKT9 were prepared with anthracycline linkers. Cancer cell lines were treated with cOKT9 ADCs (average DAR of 8:1) for 96 h and then assessed for viability. […] ND denotes value not determined with that assay for the specified compound.

[1] = system: DEL/BVR anaplastic large cell lymphoma xenograft; experiment: DEL/BVR MDR+, CD30+ anaplastic large cell lymphoma xenograft model; format: in vivo, SCID mice; settings: cAC10 S239C ADCs, average DAR 2; 3 mg/kg single dose i.p.
Protocol: (§5) All experiments were conducted in concordance with the Animal Care and Use Committee in a facility fully accredited by the Association for Assessment and Accreditation of Laboratory Animal Care. Efficacy experiments were conducted using the L540cy Hodgkin's lymphoma and DEL/BVR anaplastic large cell lymphoma xenograft models (Mol. Cancer Ther., 2018, 17(8), 1752-1760). Tumor cells, as a cell suspension, were implanted subcutaneously in immune-compromised SCID female mice. Upon tumor engraftment, the mice were randomized into study groups when the average tumor volume reached about 100 mm^3. The ADCs were dosed once via intraperitoneal injection. Tumor volume as a function of time was determined using the formula (L×W2)/2. Animals were euthanized when tumor volumes reached 1000 mm^3.
Anti-CD30 conjugates bearing PNU drug-linkers 29, 18, and 14 were further evaluated in a DEL/BVR MDR+, CD30+ anaplastic large cell lymphoma xenograft model. cAC10 antibody with the S239C mutation is conjugated to the PNU drug linkers with an average DAR of 2 to minimize the effects of ADC pharmacokinetics. Tumor-bearing mice were administered a 3 mg/kg single dose intraperitoneally (i.p.) of test article once the average tumor volume reached 100 mm^3 (typically on day 4). […] However, the conjugate comprising PNU linker 29 appeared to be non-efficacious, and only provided minimal tumor growth delay (FIG. 2). Untreated mice were used as negative controls.

L540cy, HL = experiment: In vitro growth inhibition (CellTiter-Glo, 96 h), L540cy; format: cell-based
Protocol: as §1, §3, §4, §2

[2] = system: L540cy Hodgkin's lymphoma xenograft; experiment: L540cy CD30+ Hodgkin lymphoma xenograft model; format: in vivo, SCID mice; settings: cAC10 S239C ADCs, average DAR 2; single dose i.p. at about 100 mm^3
Protocol: as §5
Anti-CD30 conjugates bearing PNU drug-linkers 29, 18, and 14 were evaluated in a CD30-expressing xenograft model as described above. cAC10 antibody with the S239C mutation is conjugated to the PNU drug linkers with an average DAR of 2 to minimize the effects of ADC pharmacokinetics. Tumor-bearing mice were administered a single dose intraperitoneally (i.p.) of test article once the average tumor volume reached 100 mm^3 (typically on day 8). Untreated mice were used as negative controls.

786-O, MDR + RCC = experiment: In vitro growth inhibition (CellTiter-Glo, 96 h), 786-O; format: cell-based; settings: cOKT9 ADCs, average DAR 8, 96 h
Protocol: as §1, §3, §4

Ramos, CD30 − NHL = experiment: In vitro growth inhibition (CellTiter-Glo, 96 h), Ramos; format: cell-based; settings: cAC10 (anti-CD30) ADCs, average DAR 4
Protocol: as §1, §2

Karpas299, ALCL = experiment: In vitro growth inhibition (CellTiter-Glo, 96 h), Karpas299; format: cell-based; settings: cAC10 (anti-CD30) ADCs, average DAR 4
Protocol: as §1, §2

DEL, ALCL = experiment: In vitro growth inhibition (CellTiter-Glo, 96 h), DEL; format: cell-based; settings: cAC10 (anti-CD30) ADCs, average DAR 4
Protocol: as §1, §2

HL60/RV, MDR + AML = experiment: In vitro growth inhibition (CellTiter-Glo, 96 h), HL60/RV; format: cell-based; settings: cOKT9 ADCs, average DAR 8, 96 h
Protocol: as §1, §3, §4

[3] = system: L540cy, 786-O, BxPC3, HL60, HL60/RV; settings: for IC50s of cOKT9 conjugates: 24 h
HL60, AML = experiment: In vitro growth inhibition (CellTiter-Glo, 96 h), HL60; format: cell-based; settings: cOKT9 ADCs, average DAR 8, 96 h
Protocol: as §1, §3, §4

[4] = system: CD30-expressing lymphoma cell line panel; format: cell-based; settings: cAC10 ADC DAR 4
Protocol: as §1, §2

[5] = cAC10 (anti-CD30) ADCs, average DAR 4
[6] = cOKT9 ADCs, average DAR 8, 96 h

Structure (SMILES)	IC50 (ng/mL) L428, MDR + HL (L428, MDR + HL)	IC50 (ng/mL) BxPC3, PancCa (BxPC3, PancCa)	antitumor activity, DEL/BVR xenograft (FIG. 2) [1]	IC50 (ng/mL) L540cy, HL (L540cy, HL; [5])	IC50 (ng/mL) L540cy, HL (L540cy, HL; [6])	antitumor activity, L540cy xenograft (FIG. 1) [2]	IC50 (ng/mL) 786-O, MDR + RCC (786-O, MDR + RCC)	IC50 (ng/mL) Ramos, CD30 − NHL (Ramos, CD30 − NHL)	IC50 (ng/mL) Karpas299, ALCL (Karpas299, ALCL)	IC50 (ng/mL) DEL, ALCL (DEL, ALCL)	IC50 (ng/mL) HL60/RV, MDR + AML (HL60/RV, MDR + AML)	IC50s of cOKT9 conjugates [3] [ng/mL]	IC50 (ng/mL) HL60, AML (HL60, AML)	IC50 values of anti-CD30 conjugate, highest dose tested [4]	activity of cOKT9 conjugates across the panel of cancer cell lines ([3]; cOKT9 ADCs DAR 8, result in words)
COc1cccc2c1C(=O)c1c(O)c3c(c(O)c1C2=O)C[C@@](O)(C(=O)NCCNC(=O)CNC(=O)CNC(=O)CNC(=O)CCN1C(=O)C=CC1=O)C[C@@H]3O[C@H]1C[C@H]2[C@H](O[C@@H]3[C@@H](OC)OCCN32)[C@H](C)O1 [Compound 18, (2S,4S)—N-(15-(2,5-dioxo-2,5-dihydro-1H-pyrrol-1-yl)-4,7,10,13-tetraoxo-3,6,9,12-tetraazapentadecyl)-2,5,12-trihydroxy-7-methoxy-4-(((1S,3R,4aS,9S,9aR,10aS)-9-methoxy-1-methyloctahydro-1H-pyrano[4′,3′:4,5]oxazolo[2,3-c][1,4]oxazin-3-yl)oxy)-6,11-dioxo-1,2,3,4,6,11-hexahydrotetracene-2-carboxamide]	D (100 ng/mL≤IC50<500 ng/mL)	A (IC50<10 ng/mL)	efficacious in suppressing tumor growth	B (1 ng/mL≤IC50<10 ng/mL)	A (IC50<10 ng/mL)	active with a majority of animals in a complete regression	A (IC50<10 ng/mL)	D (100 ng/mL≤IC50<500 ng/mL)	A (IC50<1 ng/mL)	A (IC50<1 ng/mL)	D (IC50≥1000 ng/mL)	1 to 150	B (10 ng/mL≤IC50<100 ng/mL)		
COc1cccc2c1C(=O)c1c(O)c3c(c(O)c1C2=O)C[C@@](O)(C(=O)NCCNC(=O)CNC(=O)CNC(=O)CNC(=O)OCc1ccc(NC(=O)[C@H](C)NC(=O)[C@@H](NC(=O)CCN2C(=O)C=CC2=O)C(C)C)cc1)C[C@@H]3O[C@H]1C[C@H]2[C@H](O[C@@H]3[C@@H](OC)OCCN32)[C@H](C)O1 [Compound 29, 4-((S)-2-((S)-2-(3-(2,5-dioxo-2,5-dihydro-1H-pyrrol-1-yl)propanamido)-3-methylbutanamido)propanamido)benzyl (1,6,9,12-tetraoxo-1-((2S,4S)-2,5,12-trihydroxy-7-methoxy-4-(((1S,3R,4aS,9S,9aR,10aS)-9-methoxy-1-methyloctahydro-1H-pyrano[4′,3′:4,5]oxazolo[2,3-c][1,4]oxazin-3-yl)oxy)-6,11-dioxo-1,2,3,4,6,11-hexahydrotetracen-2-yl)-2,5,8,11-tetraazatridecan-13-yl)carbamate]	E (IC50≥500 ng/mL)	A (IC50<10 ng/mL)	non-efficacious	B (1 ng/mL≤IC50<10 ng/mL)	A (IC50<10 ng/mL)	active with a majority of animals in a complete regression	B (10 ng/mL≤IC50<100 ng/mL)	E (IC50≥500 ng/mL)	A (IC50<1 ng/mL)	A (IC50<1 ng/mL)	D (IC50≥1000 ng/mL)	1 to 150	B (10 ng/mL≤IC50<100 ng/mL)		
COc1cccc2c1C(=O)c1c(O)c3c(c(O)c1C2=O)C[C@@](O)(C(=O)NCCNC(=O)CNC(=O)CNC(=O)CNC(=O)CCN1C(=O)C=CC1=O)C[C@@H]3O[C@H]1C[C@H](N2CCO[C@H](OC)C2)[C@H](O)[C@H](C)O1 [Compound 33, (2S,4S)—N-(15-(2,5-dioxo-2,5-dihydro-1H-pyrrol-1-yl)-4,7,10,13-tetraoxo-3,6,9,12-tetraazapentadecyl)-2,5,12-trihydroxy-4-(((2R,4S,5S,6S)-5-hydroxy-4-((S)-2-methoxymorpholino)-6-methyltetrahydro-2H-pyran-2-yl)oxy)-7-methoxy-6,11-dioxo-1,2,3,4,6,11-hexahydrotetracene-2-carboxamide]		D (IC50≥1000 ng/mL)			D (IC50≥1000 ng/mL)		D (IC50≥1000 ng/mL)				D (IC50≥1000 ng/mL)		D (IC50≥1000 ng/mL)	> 20,000 ng/ml	inactive
